Source: patent US11377442B2, “Small molecule agonists and antagonists of NR2F6 activity” (ZANDER THERAPEUTICS, INC., priority 2016, dated 2022)

What was measured:
Type in all cases: cell-based
NR2F6 = biological target: T1, NR2F6 (Homo sapiens, UniProt P10588); experiment: NR2F6 agonist screening, Firefly signal cmpd/DMSO; details: clone F4
T1 construct: expressed in transfected cells; also transient transfection
T1 sequence (P10588 1-404): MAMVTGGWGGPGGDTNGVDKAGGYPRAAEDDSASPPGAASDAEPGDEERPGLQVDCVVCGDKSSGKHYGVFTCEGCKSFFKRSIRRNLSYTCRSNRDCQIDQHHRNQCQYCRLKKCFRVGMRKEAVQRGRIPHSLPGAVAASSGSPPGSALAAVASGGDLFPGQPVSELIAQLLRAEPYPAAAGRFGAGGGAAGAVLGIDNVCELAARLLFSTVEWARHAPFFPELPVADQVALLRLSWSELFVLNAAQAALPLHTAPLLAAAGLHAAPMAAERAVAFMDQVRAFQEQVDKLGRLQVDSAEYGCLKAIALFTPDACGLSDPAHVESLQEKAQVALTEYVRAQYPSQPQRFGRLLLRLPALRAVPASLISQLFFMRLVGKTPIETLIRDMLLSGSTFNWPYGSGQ

ERα [1] = biological target: T2, ERα (Homo sapiens, UniProt P03372); experiment: Counterscreening, Firefly signal with ERα transient transfection (Firefly_ERa); details: 10 uM
T2 construct: expressed in transfected cells
T2 sequence (P03372 1-595): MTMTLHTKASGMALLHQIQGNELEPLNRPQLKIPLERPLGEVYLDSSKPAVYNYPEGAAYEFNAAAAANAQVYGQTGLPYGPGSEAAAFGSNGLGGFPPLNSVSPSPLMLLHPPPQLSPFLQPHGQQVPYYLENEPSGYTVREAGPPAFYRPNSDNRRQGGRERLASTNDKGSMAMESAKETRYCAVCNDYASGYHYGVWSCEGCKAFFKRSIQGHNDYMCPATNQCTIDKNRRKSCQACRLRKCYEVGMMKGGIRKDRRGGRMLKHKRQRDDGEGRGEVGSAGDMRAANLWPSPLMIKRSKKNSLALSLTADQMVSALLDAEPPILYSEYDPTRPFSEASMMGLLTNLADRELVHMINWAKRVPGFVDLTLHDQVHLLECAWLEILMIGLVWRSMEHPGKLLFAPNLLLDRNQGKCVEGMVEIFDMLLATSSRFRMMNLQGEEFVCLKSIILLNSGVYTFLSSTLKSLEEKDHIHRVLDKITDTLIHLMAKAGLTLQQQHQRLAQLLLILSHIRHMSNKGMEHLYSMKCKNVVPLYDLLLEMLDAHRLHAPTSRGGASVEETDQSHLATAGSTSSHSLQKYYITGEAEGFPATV
Protocol: The methodology for screening candidate compounds as NR2F6 agonists was as follows: For primary screening, hit criteria was ACT %>DMSO control+5*SD (DSO control) at 10 μM, or any compound with S/B>2. For rescreening, hit criteria was ACT %>DMSO control+3*SD (DSO control) in each replicate at 10 μM. For counterscreening, hit criteria was mean ACT<DMSO control+3*SD (DMSO control) with ERα transient transfection in duplicate at 10 μM.

Renilla = Renilla signal in NR2F6 agonist screening, cmpd/DMSO; details: clone F4; for fold induction at 2 µM / fold induction at 10 µM / fold induction at 40 µM: Renilla, read-out: Renilla F4, cmpd/DMSO (mean)
Renilla_ERa = experiment: Renilla signal in ERα counterscreen (Renilla_ERa); details: for fold induction at 2 µM / fold induction at 10 µM / fold induction at 40 µM: read-out: Renilla ERalpha transient, cmpd/DMSO (mean)
ERα [2] = biological target: T2, ERα; experiment: Counterscreening, Firefly signal with ERα transient transfection (Firefly_ERa)

Row | SMILES | Firefly F4, cmpd/DMSO (mean) (NR2F6; 2 uM) | Firefly F4, cmpd/DMSO (mean) (NR2F6; 10 uM) | Firefly F4, cmpd/DMSO (mean) (NR2F6; 40 uM) | Firefly ERalpha transient, cmpd/DMSO (mean) (ERα [1]) | fold induction at 2 µM (Renilla; 2 uM) | fold induction at 10 µM (Renilla; 10 uM) | fold induction at 40 µM (Renilla; 40 uM) | fold induction at 2 µM (Renilla_ERa; 2 uM) | fold induction at 10 µM (Renilla_ERa; 10 uM) | fold induction at 40 µM (Renilla_ERa; 40 uM) | Firefly ERalpha transient, cmpd/DMSO (mean) (ERα [2]; 2 uM) | Firefly ERalpha transient, cmpd/DMSO (mean) (ERα [2]; 40 uM) | Renilla F4, cmpd/DMSO (mean) (Renilla; 2 uM) | Renilla F4, cmpd/DMSO (mean) (Renilla; 10 uM) | Renilla F4, cmpd/DMSO (mean) (Renilla; 40 uM) | Renilla ERalpha transient, cmpd/DMSO (mean) (Renilla_ERa; 2 uM) | Renilla ERalpha transient, cmpd/DMSO (mean) (Renilla_ERa; 10 uM) | Renilla ERalpha transient, cmpd/DMSO (mean) (Renilla_ERa; 40 uM)
1 | O=c1cccc2n1CC1CC2CN(c2nc(N3CCCC3)nc(N3CCCC3)n2)C1 (stereo not drawn) [Compound 26] | 1.0 | 1.1 | 1.3 | 1.3 | 1 | 0.7 | 0.7 | 0.9 | 1 | 1 | 1.0 | 1.1 | – | – | – | – | – | –
2 | O=c1cccc2n1CC1CC2CN(c2nc(Cl)nc(NCCN3CCOCC3)n2)C1 (stereo not drawn) [Compound 27] | 1.0 | 1.0 | 1.0 | 1.2 | 0.9 | 0.9 | 0.8 | 1.1 | 1.1 | 1.2 | 1.2 | 1.2 | – | – | – | – | – | –
3 | CCOC(=O)Cc1sc(Nc2nc(C)cc(C)n2)nc1-c1ccccc1 [Compound 28] | 1.2 | 0.9 | 0.6 | 0.5 | 1.1 | 0.8 | 0.6 | 1.2 | 0.8 | 0.7 | 1.0 | 0.6 | – | – | – | – | – | –
4 | Cc1cc(C)nc(Nc2nc(-c3ccccc3)c(CC(=O)O)s2)n1 [Compound 29] | 0.9 | 1.4 | 1.5 | 1.7 | 0.8 | 0.9 | 0.8 | 1.1 | 1 | 1.1 | 1.2 | 2.2 | – | – | – | – | – | –
5 | Cc1cc(-c2ccccc2)nc(Nc2nc(-c3ccccc3)c(CC(=O)O)s2)n1 [Compound 30] | 1.5 | 1.6 | 1.8 | 1.5 | 1.2 | 2.3 | 3.4 | 1.2 | 1.2 | 1 | 1.1 | 1.3 | – | – | – | – | – | –
6 | O=c1cccc2n1CC1CC2CN(c2nc(N3CCOCC3)nc(N3CCOCC3)n2)C1 (stereo not drawn) [Compound 31] | 0.8 | 1.0 | 0.9 | 1.2 | 1 | 1 | 1 | 1 | 1.1 | 1.1 | 0.8 | 1.0 | – | – | – | – | – | –
7 | O=c1cccc2n1CC1CC2CN(c2nc(NCCC3=CCCCC3)nc(N3CCCC3)n2)C1 (stereo not drawn) [Compound 32] | 0.8 | 1.3 | 0.8 | 1.2 | 1.2 | 1.4 | 1 | 1.2 | 1.3 | 1.1 | 1.2 | 0.7 | – | – | – | – | – | –
8 | O=c1cccc2n1CCN(c1nc(NCC3CCCO3)nc(N3CCOCC3)n1)C2 (stereo not drawn) [Compound 33] | 0.8 | 1.0 | 1.1 | 1.3 | – | – | – | – | – | – | 1.3 | 1.4 | 1.2 | 1.3 | 1.4 | 1.2 | 1.1 | 1.3
9 | CC(C)Nc1nc(N2CCOCC2)nc(N2CCn3c(cccc3=O)C2)n1 [Compound 34] | 0.9 | 0.8 | 0.9 | 1.2 | – | – | – | – | – | – | 1.1 | 1.2 | 0.9 | 1.1 | 0.9 | 1.0 | 1.1 | 1.1
10 | CC(C)Nc1nc(N2CCCC2)nc(N2CCn3c(cccc3=O)C2)n1 [Compound 35] | 1.1 | 1.0 | 0.8 | 0.9 | – | – | – | – | – | – | 1.0 | 1.3 | 1.1 | 0.9 | 0.9 | 1.0 | 1.0 | 1.1
11 | CC1CCN(c2nc(N3CCC(C)CC3)nc(N3CCn4c(cccc4=O)C3)n2)CC1 [Compound 36] | 1.3 | 0.6 | 0.9 | 0.8 | – | – | – | – | – | – | 1.1 | 0.4 | 1.2 | 0.8 | 0.5 | 1.2 | 1.1 | 0.3
12 | CCCNc1nc(N2CCOCC2)nc(N2CC3CC(C2)c2cccc(=O)n2C3)n1 (stereo not drawn) [Compound 37] | 1.3 | 1.1 | 1.3 | 1.4 | 0.9 | 1.2 | 1.3 | 1.1 | 1.1 | 1.1 | 1.1 | 1.2 | – | – | – | – | – | –
13 | COc1nc(NCCC2=CCCCC2)nc(N2CC3CC(C2)c2cccc(=O)n2C3)n1 (stereo not drawn) [Compound 38] | 1.2 | 0.8 | 0.7 | 0.9 | 1.1 | 1.1 | 1.3 | 1.2 | 1.1 | 1.1 | 0.8 | 0.5 | – | – | – | – | – | –
14 | O=c1cccc2n1CC1CC2CN(c2nc(NCCC3=CCCCC3)nc(N3CCOCC3)n2)C1 (stereo not drawn) [Compound 39] | 1.1 | 0.9 | 0.9 | 0.6 | 1.2 | 1.4 | 1 | 1.1 | 1.2 | 1.2 | 0.9 | 0.9 | – | – | – | – | – | –
